Source: paper PMC9203742 (Nature Communications, 2022)
Where “and” joins values, the source holds several entries; their conditions need not be identical. Identical values can stand only once.

What was measured:
Format in all cases: cell-based
[1] = molecular target: T1, WT mGlu1 (Rattus norvegicus, UniProt P23385); conditions: single-cell values #1-#20; WT
T1 construct: expressed in transfected cells; host or cells: HEK293

[2] = molecular target: T2, mGlu1 P58H/N264H mutant (Rattus norvegicus, UniProt P23385, N264H/P58H); experiment: Fura-2 Ca2+ imaging in HEK293 cells expressing mGlu1 P58H/N264H
T2 construct: expressed in transfected cells; host or cells: HEK293

[3] = molecular target: T3, mGlu1 A59H/N264H mutant (Rattus norvegicus, UniProt P23385, A59H/N264H); experiment: Fura-2 Ca2+ imaging in HEK293 cells expressing mGlu1 A59H/N264H
T3 construct: expressed in transfected cells; host or cells: HEK293

[4] = molecular target: T4, mGlu1 K61H/N264H mutant (Rattus norvegicus, UniProt P23385, K61H/N264H); experiment: Fura-2 Ca2+ imaging in HEK293 cells expressing mGlu1 K61H/N264H
T4 construct: expressed in transfected cells; host or cells: HEK293

[5] = molecular target: T5, mGlu1(N264H) mutant (Rattus norvegicus, UniProt P23385, N264H); experiment: Fura-2 Ca2+ imaging in HEK293 cells expressing mGlu1(N264H)
T5 construct: expressed in transfected cells; host or cells: HEK293

[6] = molecular target: T6, mGlu1 P57H/N264H mutant (Rattus norvegicus, UniProt P23385, N264H/P57H); experiment: Fura-2 Ca2+ imaging in HEK293 cells expressing mGlu1 P57H/N264H; conditions: single-cell values #1-#20; P57H/N264H
T6 construct: expressed in transfected cells; host or cells: HEK293

[7] = molecular target: T7, mGlu1 E60H/N264H mutant (Rattus norvegicus, UniProt P23385, E60H/N264H); experiment: Fura-2 Ca2+ imaging in HEK293 cells expressing mGlu1 E60H/N264H; conditions: single-cell values #1-#20; E60H/N264H
T7 construct: expressed in transfected cells; host or cells: HEK293

[8] = molecular target: T5, mGlu1(N264H) mutant; experiment: Inositol-1-phosphate (IP1) accumulation assay, HEK293 cells expressing mGlu1(N264H)
[9] = system: HEK293 cells, control vector; experiment: Inositol-1-phosphate (IP1) accumulation assay, HEK293 cells transfected with control vector; conditions: 30 µM Pd(bpy); Vec
[10] = system: PC12 cells; experiment: NGF-induced neurite outgrowth in differentiated PC12 cells; design: neurite outgrowth, individual values #1-#20 (Fig.4b): unit not given here; conditions: for neurite outgrowth, individual values #1-#20 (Fig.4b): differentiated PC12 cells
Procedure: After incubation for 3 days, PC12 cells bearing neurites were randomly selected, and the length of the longest neurite in each cell was measured using ImageJ package Fiji.

[11] = HEK293 cells, Fura-2, read-out: EC50, Ca2+ response (Δratio)

T1 sequence (P23385 19-1199): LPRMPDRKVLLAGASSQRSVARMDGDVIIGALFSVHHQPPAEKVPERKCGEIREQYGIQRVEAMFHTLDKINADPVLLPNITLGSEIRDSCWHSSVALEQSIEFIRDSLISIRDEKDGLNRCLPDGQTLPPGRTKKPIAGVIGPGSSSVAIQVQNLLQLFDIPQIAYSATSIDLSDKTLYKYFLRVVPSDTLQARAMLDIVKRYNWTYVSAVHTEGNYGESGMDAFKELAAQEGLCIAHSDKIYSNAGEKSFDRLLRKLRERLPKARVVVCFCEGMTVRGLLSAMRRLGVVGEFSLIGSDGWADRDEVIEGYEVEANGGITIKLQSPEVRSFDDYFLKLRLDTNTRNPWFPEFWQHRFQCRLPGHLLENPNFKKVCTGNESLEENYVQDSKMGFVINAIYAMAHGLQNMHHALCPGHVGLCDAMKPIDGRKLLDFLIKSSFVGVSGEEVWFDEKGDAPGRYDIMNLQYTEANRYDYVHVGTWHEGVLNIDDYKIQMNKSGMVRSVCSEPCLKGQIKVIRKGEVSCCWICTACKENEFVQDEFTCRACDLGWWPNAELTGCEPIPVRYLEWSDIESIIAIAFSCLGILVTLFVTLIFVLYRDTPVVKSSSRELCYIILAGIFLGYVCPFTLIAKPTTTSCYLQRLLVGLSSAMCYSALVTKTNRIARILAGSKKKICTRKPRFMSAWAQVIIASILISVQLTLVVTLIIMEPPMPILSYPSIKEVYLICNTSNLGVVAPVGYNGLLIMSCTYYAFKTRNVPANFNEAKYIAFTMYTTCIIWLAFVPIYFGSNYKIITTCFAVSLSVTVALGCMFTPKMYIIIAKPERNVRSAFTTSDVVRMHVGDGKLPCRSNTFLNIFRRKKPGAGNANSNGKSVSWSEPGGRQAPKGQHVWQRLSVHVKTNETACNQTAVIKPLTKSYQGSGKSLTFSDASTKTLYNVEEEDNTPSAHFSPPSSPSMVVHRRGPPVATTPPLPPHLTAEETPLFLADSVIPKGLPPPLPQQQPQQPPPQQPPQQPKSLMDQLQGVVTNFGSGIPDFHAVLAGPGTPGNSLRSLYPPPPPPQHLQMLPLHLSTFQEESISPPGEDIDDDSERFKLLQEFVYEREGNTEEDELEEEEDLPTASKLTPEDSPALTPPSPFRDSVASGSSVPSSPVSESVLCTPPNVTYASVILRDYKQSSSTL
T6 sequence (P23385 19-1199 P57H/N264H): as the sequence (P23385 19-1199) above, with P39H, N246H counted along it
T4 sequence (P23385 19-1199 K61H/N264H): as the sequence (P23385 19-1199) above, with K43H, N246H counted along it
T2 sequence (P23385 19-1199 P58H/N264H): as the sequence (P23385 19-1199) above, with P40H, N246H counted along it
T5 sequence (P23385 19-1199 N264H): as the sequence (P23385 19-1199) above, with N246H counted along it
T3 sequence (P23385 19-1199 A59H/N264H): as the sequence (P23385 19-1199) above, with A41H, N246H counted along it
T7 sequence (P23385 19-1199 E60H/N264H): as the sequence (P23385 19-1199) above, with E42H, N246H counted along it

## O=[N+]([O-])[O-].O=[N+]([O-])[O-].[Pd+2].c1ccc(-c2ccccn2)nc1 [Pd(bpy), Pd(bpy)(NO3)2]
[1]
  Ca2+ response of individual cells (source data Suppl Fig1), WT: -0.002508 and 0.03248 and -0.005946 and 0.001185 and -0.01881 and -0.01405 and 0.05177 and 0.006038 and 0.01295 and 0.02212 and 0.002477 and -0.0007231 and 0.1314 and 0.1045 and 0.02565 and -0.005715 and 0.004592 and -0.01058 and -0.003931 and 0.0524
[2]; [11]
  EC50: 1200 nM
[2]; single-cell values #1-#20, P58H/N264H
  Ca2+ response of individual cells (source data Suppl Fig1), P58H/N264H: 1.407 and 1.235 and 0.2781 and 0.4382 and 0.4216 and 0.8249 and 0.694 and 0.5635 and 0.8179 and 0.3484 and 1.211 and 0.7928 and 0.02745 and 0.7691 and 1.112 and 0.5883 and 0.4797 and 0.3836 and 0.0272 and 0.6649
[3]; [11]
  EC50: 3800 nM
[3]; single-cell values #1-#20, A59H/N264H
  Ca2+ response of individual cells (source data Suppl Fig1), A59H/N264H: 0.6362 and 0.8074 and 0.5582 and 0.806 and 0.7717 and -0.01028 and 0.5677 and 0.7063 and 0.5602 and 0.7126 and 0.6578 and 1.118 and 1.1499 and 0.77 and 0.5325 and 0.4993 and 0.7176 and 0.6258 and 0.8578 and 0.6525
[4]; [11]
  EC50: 2300 nM
[4]; single-cell values, K61H/N264H
  Ca2+ response of individual cells (source data Suppl Fig1), K61H/N264H: 0.2703 and 0.5297 and 0.971 and -0.1576 and 0.5357 and 0.5344 and 1.086 and 1.005 and 0.6767 and 0.2693 and 0.4514 and -0.009392 and 0.06739 and -0.01372
[5]; 3 µM Pd(bpy) in the presence of 10 µM LY367385
  Positive allosteric effect: dose-dependency of glutamate-induced responses: unaffected
[5]; 10 µM agonist, n = 15
  Time to basal level after wash-out by culture medium: 49.0 ± 6.4 s
[5]; [11]
  EC50: 1600 nM
[5]; ave of 15 cells
  Pd(bpy) off: 49 s
  Pd(bpy) on: 58 s
[5]; in the presence of LY367385, P = 0.3803
  Effect on 100 μM glutamate-induced response: not enhanced
[5]; single-cell values
  Ca2+ response to Pd complex, individual cells #1-#20 (Fig.4e): 0.1987 and 0.007031 and 0.6462 and 0.6597 and 0.6897 and 0.134 and 0.5276 and 0.6019 and 0.1524 and 0.7025 and 0.5861 and 1.131 and 0.7531 and 0.5352 and 0.5053 and 0.4553 and 0.9996 and 0.7233 and 0.7477 and 0.221
[6]
  Ca2+ response of individual cells (source data Suppl Fig1), P57H/N264H: 1.496 and 0.4197 and 0.3632 and 0.5618 and 0.3459 and 0.2699 and 0.5435 and -0.005777 and 0.04309 and 0.04215 and 0.5777 and 1 and 0.77 and 0.6187 and 0.5778 and -0.002723 and 0.1859 and 0.08165 and 0.3295 and 0.5272
[7]
  Ca2+ response of individual cells (source data Suppl Fig1), E60H/N264H: -0.015 and 0.1464 and 0.05592 and 0.009469 and 0.1218 and 0.005362 and 1.129 and 0.9384 and 0.8641 and 0.6693 and 0.02784 and 0.0255 and 0.002069 and -0.0022 and -0.0079 and 0.08848 and 0.002385 and -0.01194 and -0.01146 and 0.1752
[8]; 30 µM Pd(bpy), N264H
  IP1 accumulation, single experiments: 1.924 and 2.4034 and 1.9034 and 1.783
[8]; Pd(bpy) 30 µM / 10 μM (method)
  IP3 production evaluated by IP1 accumulation: increased
[9]
  IP1 accumulation, single experiments: 1.069 and 0.9695 and 0.8004
[10]; 100 μM, 3 days, NGF-differentiated
  Neurite outgrowth: not affected
[10]; [Pd(bpy)] 1 µM
  neurite outgrowth, individual values #1-#20 (Fig.4b): 135.681 and 134.669 and 132.267 and 127.77 and 127.752 and 123.426 and 118.782 and 113.497 and 109.51 and 107.296 and 102.296 and 95.2965 and 92.9706 and 197.35 and 182.054 and 180.267 and 162.995 and 150.48 and 140.539 and 136.598
[10]; [Pd(bpy)] 3 µM
  neurite outgrowth, individual values #1-#20 (Fig.4b): 125.971 and 116.953 and 113.154 and 109.598 and 107.841 and 88.6396 and 86.7696 and 85.5685 and 80.0833 and 79.598 and 79.4975 and 76.3259 and 73.1127 and 263.255 and 244.078 and 176.493 and 155.64 and 151.309 and 138.368 and 127.894
[10]; [Pd(bpy)] 10 µM
  neurite outgrowth, individual values #1-#20 (Fig.4b): 140.024 and 139.953 and 126.728 and 122.326 and 118.61 and 116.811 and 111.912 and 108.941 and 106.468 and 103.983 and 102.368 and 92.3553 and 91.5269 and 184.551 and 173.426 and 168.711 and 166.853 and 164.196 and 142.426 and 140.681
[10]; [Pd(bpy)] 30 µM
  neurite outgrowth, individual values #1-#20 (Fig.4b): 110.627 and 105.752 and 95.8406 and 93.1838 and 90.6274 and 88.9706 and 84.7696 and 80.5685 and 78.2548 and 76.598 and 71.4264 and 67.1127 and 62.669 and 292.527 and 200.326 and 143.51 and 135.196 and 131.456 and 117.853 and 113.811
